According to paper PMC8879702, “Discovery of Small Molecule Activators of Chemokine Receptor CXCR4 That Improve Diabetic Wound Healing” (International Journal of Molecular Sciences, 2022):

Columns and labels:
[1] = test system: diabetic wounds in Db mice; experiment: full-thickness excisional 8 mm wound healing in diabetic Db mice; assay type: in vivo
Procedure: We examined the ability of our lead compound to improve diabetic wound healing in vivo. Full-thickness excisional 8 mm wounds were created in Db mice and were immediately treated with 10 µM UCUF-728 or PBS control. We monitored wound healing over the course of 22 days. Initial wound size was calculated immediately after wounding, and wound closure was assessed over time as the percentage of initial wound area. Figure 4A depicts the wound healing effect of UCUF-728 application on the excision wound model for sequential days following injury. […] The effect of UCUF-728 treatment on angiogenesis was assessed using immunohistochemistry for the endothelial marker CD31. Representative photos of immunoperoxidase staining for CD31 at 7 days in diabetic wounds treated with PBS or UCUF-728 are shown in Figure 4C.
All animal experiments were approved by the Institutional Animal Care and Use Committee at the University of Colorado Denver—Anschutz Medical Campus, and experimental protocols followed the guidelines described in the NIH Guide for the Care and Use of Laboratory Animals. In these experiments, we used 10-week-old, female, genetically diabetic C57BKS.Cg-m/Leprdb/J (Db) mice and heterozygous, non-diabetic (non-Db), age-matched female controls from the Jackson Laboratory (Bar Harbor, ME, USA). Mice were anesthetized with inhaled isoflurane. Each mouse was shaved and depilated before wounding. The dorsal skin was swabbed with alcohol and Betadine (Purdue Pharma, Stamford, CT, USA). Each mouse received a single, full-thickness dorsal wound (including panniculus carnosum) with an 8-mm punch biopsy (Miltex Inc., York, PA, USA). After wounding, a Hamilton syringe was used to deliver 50 μL of either 10 uM CAG1 or PBS, as a control. Ten […] were injected intradermally at 12, 3, 6 and 9 o’clock and at the wound base. All wounds were dressed with Tegaderm (3M, St. Paul, MN, USA), which was subsequently removed on postoperative day 2. Postoperatively, the mice received a subcutaneous injection of an analgesic, Banamine (Schering-Plough Animal Health Corp., Union, NJ, USA). A full-thickness skin sample, centered on the wound, was harvested 3 and 7 days after surgery (n = 5 per timepoint).

CEM-CCRF cells = experiment: 96 wells transwell migration assay in CEM human lymphoblast cells; assay type: cell-based
Description: Thus, to confirm CXCR4 functional activity, we evaluated UCUF-728 in a 96 wells transwell migration assay in CEM human lymphoblast cells. […] (Supplemental Figure S7). From the analog structure–activity relationship studies and characterization studies in the chemotaxis assay, cAMP signaling and CXCR4 binding assay, we identified UCUF-728 as a potent and functionally selective CXCR4 receptor modulator.
CEM-CCRF (ATCC CCL-119) were suspended in RPMI 1640 (Corning; 10-040-CV) at 5.0 × 10^5 cells/mL and allowed to incubate in cell culture incubator at 37 °C with 5% CO2 for one hour. […] Following 1 h cell incubation and compound dispensing, 150 μL of RPMI 1640 supplemented with 2% Fetal Bovine Serum was added to each well of the compound receiver tray, and 50 μL of 5 × 10^5 cells/mL cell suspension in RPMI were added to each well of the top filter plate. Plates were reassembled and placed in a cell culture incubator at 37 °C with 5% CO2 for three hours. After incubation, Multi-Screen plate was disassembled and 100 μL of solution was collected from compound receiver tray and transferred to 96 well luminescent plate and an equal volume of ATPLite 1step luminescence reagent (Perkin Elmer, Waltham, MA, USA) was added to each well. Luminescence was measured using the CLARIOstar Plus (BMG LABTECH Inc., Cary, NC, USA).

CXCR4 receptor = CXCR4 receptor (Homo sapiens, UniProt P61073); experiment: primary 1536 w β-arrestin recruitment assay (CXCR4-bla U2OS cells, SDF-1α from R&D systems); assay type: cell-based; parameters: host or cells: Tango CXCR4-bla U2OS cells
Procedure: In our effort to identify CXCR4 activators from the NIH Molecular Library Small Molecule Repository (MLSMR), we developed a primary screening assay to measure β-arrestin recruitment to the activated G-protein coupled receptor (GPCR) by a Florescence Resonance Energy Transfer (FRET) in U2OS cells, overexpressing the CXCR4 receptor engineered with a β-lactamase (bla) reporter system. CXCR4-bla cells plated in 1536 w were stimulated in the presence of 10 µM compound concentration. […] Using this approach, we successfully screened the NIH MLSMR of 370,620 compounds (Figure 1A,B) and identified 303 hits (hit rate = 0.08%). […] These compounds were graded according to activity and structure, resulting in 86 compounds that met the criteria as potential CXCR4 agonists for further characterization (Figure 1B). The workflow for high-throughput screening and this study is illustrated in Figure 1B.
Chemical stability, synthetic tractability, solubility and complete dose response and potency criteria led to the prioritization of the 5-aryl-2-cyclopropyl oxazole scaffold, represented by primary hit Compound 2 (Table 1). The early structure–activity relationship was established around the 5-aryl-2-cyclopropyl oxazole core with commercially available analogs with diverse substituents in the sulfonanilide ring of the scaffold. […] Keeping the 2-OMe substituent constant, we screened a small set of electron withdrawing and electron rich substituents at the 5-position of the anilide ring (entries 16–19). […] The analytical data for UCUF-728 is shown in Supplemental Figures S1–S4.

Sequence of CXCR4 receptor (P61073 whole entry): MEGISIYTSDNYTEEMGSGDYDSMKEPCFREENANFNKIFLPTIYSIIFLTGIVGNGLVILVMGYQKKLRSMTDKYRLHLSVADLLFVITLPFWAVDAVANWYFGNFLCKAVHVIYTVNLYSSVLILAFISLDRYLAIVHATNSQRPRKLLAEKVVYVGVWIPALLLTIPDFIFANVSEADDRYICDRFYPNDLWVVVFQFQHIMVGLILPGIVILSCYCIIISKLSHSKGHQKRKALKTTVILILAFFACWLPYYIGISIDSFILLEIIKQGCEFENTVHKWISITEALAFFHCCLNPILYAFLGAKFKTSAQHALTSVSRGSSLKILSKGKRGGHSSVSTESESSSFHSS

EC50 (CXCR4 receptor): 1100 nM
Emax (CXCR4 receptor; U2OS): 60%
Compound: COc1ccc(OC)c(NS(=O)(=O)c2ccc(-c3cnc(C4CC4)o3)cc2)c1 [Compound 19]
time of full closure ([1]; Db mice, 8 mm wound, 10 µM intradermal at wounding, PBS 22 days): 14 days
wound surface area ([1]; Db wounds, post-injury day 6, vs PBS): decrease in the wound surface area
reduction of wound closure time ([1]; diabetic mice, vs PBS): 36%
number of vessels (CD31 staining) ([1]; diabetic wounds, 7 days, vs PBS): significant increase in the number of vessels
induction of cell migration (CEM-CCRF cells; compound in lower channel, 3 h): induced migration with a similar EC50 and Emax as the B-arrestin recruitment activity
effect on SDF-1α-mediated migration response (CEM-CCRF cells; saturating concentrations of UCUF-728): potentiated
